Data reported in patent EP0002259B1, “Hydantoin derivatives and salts thereof, their synthesis and pharmaceutical formulations” (THE WELLCOME FOUNDATION LIMITED, priority 1977, dated 1979).
One block for each molecule: values may come before it.

Assays:
[1] = Solubility in volatile solvent (tablet formulation); assay type: physicochemical; conditions: methanol, ethanol
Procedure: The compound was dissolved in a volatile solvent. […] The mixture was then pressed to tablets, each 226 mg in weight.

[2] = test system: platelets in fresh human platelet rich plasma (PRP); assay: Inhibition of platelet aggregation (ADP-stimulated, Born aggregometer), activity compared to PGE1; assay type: cell-based; conditions: 37°C for 1 minute, ADP 5 µm
Procedure: Aggregation of platelets in 1 ml of fresh human platelet rich plasma (PRP) was monitored in a Born aggregometer.
The compound to be tested was added to the PRP at the desired concentration, and the resulting mixture incubated at 37°C for 1 minute after which platelet aggregation was stimulated by the addition of adenosine diphosphate (ADP) to a concentration of 5 µm.
The antiaggregatory effect of the compound was assessed by measuring the percentage inhibition of platelet aggregation in the presence of the compound as compared with when it was absent. The percentage inhibitions at various concentrations of hydantoin and prostaglandin E, (PGE,) were established and compared to show activity compared to PGE,.

[3] = test system: Male normotensive rats Wistar (Charles River) strain; assay: Cardiovascular effects in anaesthetised rats (hypotensive effect compared with prostacyclin); assay type: in vivo; conditions: intravenous injection in physiological saline
Procedure: Male normotensive rats Wistar (Charles River) strain, ([…]) were anesthetised (chloroform) prior to cannulation to left femoral vein and anaestesia maintained by intravenous chloralose (60 mg/kg). Pulsatile blood pressure was recorded from the left femoral artery with an electronic transducer (Bell and Howell Type 4-327 L221) and integrated heart rate was measured with a cardiotachometer triggered from the arterial pressure waves.
The test compound (less polar diastereomer of the compounds of Example 2) was administered as a solution in physiological saline by intravenous injection via the femoral cannula. The responses recorded were allowed to return to the preinjection levels between successive administrations.

solubility [1]: soluble in methanol and in ethanol
SMILES: O=C(O)CCCCCCC1C(=O)NC(=S)N1CCC(O)C1CCCCC1 (single isomer, unassigned) [Example 3 less, 5-(6-carboxyhexyl)-l-(3-cyclohexyl-3-hydroxypropyl)-2-thiohydantoin]

SMILES: CCCCCC(O)CCN1C(=S)NC(=O)C1CCCCCCC(=O)O (centres unmarked) [Example 1 more, 5-(6-carboxyhexyl)-1-(3-hydroxyoctyl)-2-thiohydantoin]
Inhibition of Platelet Aggregation (X PGE1) ([2]; activity relative to PGE1): <0,01 X PGE1

SMILES: CC(C)(C)CC(O)CCN1C(=S)NC(=O)C1CCCCCCC(=O)O (centres unmarked) [Example 2 less, 5-(6-carboxyhexyl)-1-(5,5-dimethyl-3-hydroxyhexyl)-2-thiohydantoin]
hypotensive effect, per cent of the hypotensive effect of prostacyclin [3]: less than one
Inhibition of Platelet Aggregation (X PGE1) ([2]; activity relative to PGE1, listed as 2 less): 0,04 X PGE1

SMILES: CC(C)(C)CC(O)CCN1C(=S)NC(=O)C1CCCCCCC(=O)O (centres unmarked) [Example 2 more, 5-(6-carboxyhexyl)-1-(5,5-dimethyl-3-hydroxyhexyl)-2-thiohydantoin]
Inhibition of Platelet Aggregation (X PGE1) ([2]; activity relative to PGE1, listed as 2 more): 0,01 X PGE1

SMILES: O=C(O)CCCCCCC1C(=O)NC(=S)N1CCC(O)C1CCCC1 (centres unmarked) [Example 5 less, 5-(6-carboxyhexyl)-1-(3-cyclopentyl-3-hydroxypropyl)-2-thiohydantoin]
Inhibition of Platelet Aggregation (X PGE1) ([2]; activity relative to PGE1): 0,03 X PGE1

SMILES: O=C(O)CCC/C=C\CC1C(=O)NC(=S)N1CCC(O)C1CCCCC1 (centres unmarked) [Example 6 less, 5-(6-carboxyhex-2Zenyl)-1-(3-cyclohexyl-3-hydroxypropyl)-2-thiohydantoin]
Inhibition of Platelet Aggregation (X PGE1) ([2]; activity relative to PGE1, listed as 6 less): 0,04 X PGE1

SMILES: O=C(O)CCC/C=C\CC1C(=O)NC(=S)N1CCC(O)C1CCCCC1 (centres unmarked) [Example 6 more, 5-(6-carboxyhex-2Zenyl)-1-(3-cyclohexyl-3-hydroxypropyl)-2-thiohydantoin]
Inhibition of Platelet Aggregation (X PGE1) ([2]; activity relative to PGE1, listed as 6 more): 0,02 X PGE1
